The results in this text go back to patent publication US20240238423A9, “TETRAHYDROISOQUINOLINE HETEROBIFUNCTIONAL BCL-XL DEGRADERS” (Treeline Biosciences, Inc., priority 2022, published 2024).

This experiment addresses T1, Human BCL-XL protein (N-terminal HiBiT tagged BCL-XL in HT1080 cells) (Homo sapiens, UniProt Q07817).
T1 construct: expressed in transfected cells; host or cells: HT-1080 (ATCC CCL-121), stably transduced with lentivirus pLV-UBC-N-HiBiT-BCL-XL-PGK-puro and selected with puromycin
In words: HiBiT based degradation assay. Format: cell-based. The note with it: HT1080 cells expressing HiBiT-BCL-XL, 24 h; for Ymin (24 h): BCL-XL degradation normalized with DMSO control; for DC50: BCL-XL degradation, read-out: EC50 (24 h). An outline of the steps: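 HT1080 cells stably transduced by lentivirus with N-terminally HiBiT-tagged human BCL-XL and kept under 1 μg/mL puromycin selection were seeded at three thousand cells per well in 40 μL RPMI 1640 into 384-well plates pre-spotted with compounds across a concentration range. Luminescence was read on a PHERAstar FSX, normalized to DMSO, and fitted with a four-parameter logistic model.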
In general terms: HiBiT is a short tag that completes a luciferase, so light tracks the accessible tagged protein.

T1 sequence (Q07817 whole entry): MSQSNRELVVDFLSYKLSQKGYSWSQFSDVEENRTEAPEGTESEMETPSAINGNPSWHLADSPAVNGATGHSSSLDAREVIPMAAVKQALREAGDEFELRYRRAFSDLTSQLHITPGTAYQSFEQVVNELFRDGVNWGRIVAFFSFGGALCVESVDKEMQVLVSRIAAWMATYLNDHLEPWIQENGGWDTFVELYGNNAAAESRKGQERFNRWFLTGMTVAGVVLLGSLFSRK

As to `Cc1c(O[C@H]2CC[C@H](CCCCN3CCC(Oc4cccc5c(C6CCC(=O)NC6=O)nn(C)c45)CC3)CC2)cccc1-c1ccc(N2CCc3cccc(C(=O)Nc4nc5ccccc5s4)c3C2)nc1C(=O)O` (stereo partly drawn) [Compound 327a, 6-(8-(benzo[d]thiazol-2-ylcarbamoyl)-3,4-dihydroisoquinolin-2(1H)-yl)-3-(3-(((1s,4r)-4-(4-(4-((3-(2,6-dioxopiperidin-3-yl)-1-methyl-1H-indazol-7-yl)oxy)piperidin-1-yl)butyl)cyclohexyl)oxy)-2-methylphenyl)picolinic acid], the “Ymin (24 h)” value was “A (Ymin < 50%)” and the DC50 is < 100 nM.
On the same counts, the results for `Cn1nc(C2CCC(=O)NC2=O)c2ccc(N3CCN(CCC[C@H]4CC[C@H](Oc5cccc(-c6ccc(N7CCc8cccc(C(=O)Nc9nc%10ccccc%10s9)c8C7)nc6C(=O)O)c5C(F)(F)F)CC4)CC3)cc21` (stereo partly drawn) [Compound 328a, 6-(8-(benzo[d]thiazol-2-ylcarbamoyl)-3,4-dihydroisoquinolin-2(1H)-yl)-3-(3-(((1s,4r)-4-(3-(4-(3-(2,6-dioxopiperidin-3-yl)-1-methyl-1H-indazol-6-yl)piperazin-1-yl)propyl)cyclohexyl)oxy)-2-(trifluoromethyl)phenyl)picolinic acid] are “A (Ymin < 50%)” and < 100 nM.
On the same counts, the results for `Cn1nc(C2CCC(=O)NC2=O)c2ccc(N3CCN(CCCC[C@H]4CC[C@H](Oc5cccc(-c6ccc(N7CCc8cccc(C(=O)Nc9nc%10ccccc%10s9)c8C7)nc6C(=O)O)c5)CC4)CC3)cc21` (stereo partly drawn) [Compound 329a, 6-(8-(benzo[d]thiazol-2-ylcarbamoyl)-3,4-dihydroisoquinolin-2(1H)-yl)-3-(3-(((1s,4r)-4-(4-(4-(3-(2,6-dioxopiperidin-3-yl)-1-methyl-1H-indazol-6-yl)piperazin-1-yl)butyl)cyclohexyl)oxy)phenyl)picolinic acid] are “A (Ymin < 50%)” and < 100 nM.
On the same counts, the results for `Cn1nc(C2CCC(=O)NC2=O)c2ccc(N3CCN(CCC[C@H]4CC[C@H](Oc5cccc(-c6ccc(N7CCc8cccc(C(=O)Nc9nc%10ccccc%10s9)c8C7)nc6C(=O)O)c5)CC4)CC3)cc21` (stereo partly drawn) [Compound 330a, 6-(8-(benzo[d]thiazol-2-ylcarbamoyl)-3,4-dihydroisoquinolin-2(1H)-yl)-3-(3-(((1s,4r)-4-(3-(4-(3-(2,6-dioxopiperidin-3-yl)-1-methyl-1H-indazol-6-yl)piperazin-1-yl)propyl)cyclohexyl)oxy)phenyl)picolinic acid] are “A (Ymin < 50%)” and < 100 nM.
Take `Cc1c(O[C@H]2CC[C@H](CCCN3CCN(c4ccc5c(C6CCC(=O)NC6=O)nn(C)c5c4C)CC3)CC2)cccc1-c1ccc(N2CCc3cccc(C(=O)Nc4nc5ccccc5s4)c3C2)nc1C(=O)O` (stereo partly drawn) [Compound 334a, 6-(8-(benzo[d]thiazol-2-ylcarbamoyl)-3,4-dihydroisoquinolin-2(1H)-yl)-3-(3-(((1s,4r)-4-(3-(4-(3-(2,6-dioxopiperidin-3-yl)-1,7-dimethyl-1H-indazol-6-yl)piperazin-1-yl)propyl)cyclohexyl)oxy)-2-methylphenyl)picolinic acid]: the “Ymin (24 h)” value is recorded as “A (Ymin < 50%)” and the DC50 was < 100 nM.
On the same counts, the results for `Cc1cc2c(C3CCC(=O)NC3=O)nn(C)c2cc1N1CCN(CCC[C@H]2CC[C@H](Oc3cccc(-c4ccc(N5CCc6cccc(C(=O)Nc7nc8ccccc8s7)c6C5)nc4C(=O)O)c3C)CC2)CC1` (stereo partly drawn) [Compound 335a, 6-(8-(benzo[d]thiazol-2-ylcarbamoyl)-3,4-dihydroisoquinolin-2(1H)-yl)-3-(3-(((1s,4r)-4-(3-(4-(3-(2,6-dioxopiperidin-3-yl)-1,5-dimethyl-1H-indazol-6-yl)piperazin-1-yl)propyl)cyclohexyl)oxy)-2-methylphenyl)picolinic acid] are “A (Ymin < 50%)” and < 100 nM.
On the same counts, the results for `Cc1c(O[C@H]2CC[C@H](CCCN3CCN(c4ccc5c(C6CCC(=O)NC6=O)nn(C)c5c4)CC3(C)C)CC2)cccc1-c1ccc(N2CCc3cccc(C(=O)Nc4nc5ccccc5s4)c3C2)nc1C(=O)O` (stereo partly drawn) [Compound 336a, 6-(8-(benzo[d]thiazol-2-ylcarbamoyl)-3,4-dihydroisoquinolin-2(1H)-yl)-3-(3-(((1s,4r)-4-(3-(4-(3-(2,6-dioxopiperidin-3-yl)-1-methyl-1H-indazol-6-yl)-2,2-dimethylpiperazin-1-yl)propyl)cyclohexyl)oxy)-2-methylphenyl)picolinic acid] are “A (Ymin < 50%)” and < 100 nM.
On the same counts, the results for `Cc1c(O[C@H]2CC[C@H](CCCN3CCC(Oc4ccc5c(C6CCC(=O)NC6=O)nn(C)c5c4)CC3)CC2)cccc1-c1ccc(N2CCc3cccc(C(=O)Nc4nc5ccccc5s4)c3C2)nc1C(=O)O` (stereo partly drawn) [Compound 337a, 6-(8-(benzo[d]thiazol-2-ylcarbamoyl)-3,4-dihydroisoquinolin-2(1H)-yl)-3-(3-(((1s,4r)-4-(3-(4-((3-(2,6-dioxopiperidin-3-yl)-1-methyl-1H-indazol-6-yl)oxy)piperidin-1-yl)propyl)cyclohexyl)oxy)-2-methylphenyl)picolinic acid] are “A (Ymin < 50%)” and < 100 nM.
In the case of `Cc1c(O[C@H]2CC[C@H](CCCN3CCC(Oc4cccc5c(C6CCC(=O)NC6=O)nn(C)c45)CC3)CC2)cccc1-c1ccc(N2CCc3cccc(C(=O)Nc4nc5ccccc5s4)c3C2)nc1C(=O)O` (stereo partly drawn) [Compound 338a, 6-(8-(benzo[d]thiazol-2-ylcarbamoyl)-3,4-dihydroisoquinolin-2(1H)-yl)-3-(3-(((1s,4r)-4-(3-(4-((3-(2,6-dioxopiperidin-3-yl)-1-methyl-1H-indazol-7-yl)oxy)piperidin-1-yl)propyl)cyclohexyl)oxy)-2-methylphenyl)picolinic acid], the “Ymin (24 h)” value is “A (Ymin < 50%)” and the DC50 was < 100 nM.
On the same counts, the results for `Cc1c(O[C@H]2CC[C@H](CCCCN3CCN(c4ccc5c(C6CCC(=O)NC6=O)nn(C)c5c4)[C@@H](C(F)(F)F)C3)CC2)cccc1-c1ccc(N2CCc3cccc(C(=O)Nc4nc5ccccc5s4)c3C2)nc1C(=O)O` (stereo partly drawn) [Compound 339a, 6-(8-(benzo[d]thiazol-2-ylcarbamoyl)-3,4-dihydroisoquinolin-2(1H)-yl)-3-(3-(((1s,4r)-4-(4-((3R)-4-(3-(2,6-dioxopiperidin-3-yl)-1-methyl-1H-indazol-6-yl)-3-(trifluoromethyl)piperazin-1-yl)butyl)cyclohexyl)oxy)-2-methylphenyl)picolinic acid] are “B (50% ≤ Ymin < 70%)” and < 100 nM.
In the same order, the values of `Cc1c(O[C@H]2CC[C@H](CCC(C)(C)N3CCN(c4ccc5c(C6CCC(=O)NC6=O)nn(C)c5c4)CC3)CC2)cccc1-c1ccc(N2CCc3cccc(C(=O)Nc4nc5ccccc5s4)c3C2)nc1C(=O)O` (stereo partly drawn) [Compound 340a, 6-(8-(benzo[d]thiazol-2-ylcarbamoyl)-3,4-dihydroisoquinolin-2(1H)-yl)-3-(3-(((1s,4r)-4-(3-(4-(3-(2,6-dioxopiperidin-3-yl)-1-methyl-1H-indazol-6-yl)piperazin-1-yl)-3-methylbutyl)cyclohexyl)oxy)-2-methylphenyl)picolinic acid] are “A (Ymin < 50%)” and < 100 nM.
In the same order, the values of `Cc1c(O[C@H]2CC[C@H](CCC(C)(C)N3CCN(c4cccc5c(C6CCC(=O)NC6=O)nn(C)c45)CC3)CC2)cccc1-c1ccc(N2CCc3cccc(C(=O)Nc4nc5ccccc5s4)c3C2)nc1C(=O)O` (stereo partly drawn) [Compound 341a, 6-(8-(benzo[d]thiazol-2-ylcarbamoyl)-3,4-dihydroisoquinolin-2(1H)-yl)-3-(3-(((is, 4r)-4-(3-(4-(3-(2,6-dioxopiperidin-3-yl)-1-methyl-1H-indazol-7-yl)piperazin-1-yl)-3-methylbutyl)cyclohexyl)oxy)-2-methylphenyl)picolinic acid] are “A (Ymin < 50%)” and < 100 nM.
`Cc1c(O[C@H]2CC[C@H](CCCC(C)(C)N3CCN(c4cccc5c(C6CCC(=O)NC6=O)nn(C)c45)CC3)CC2)cccc1-c1ccc(N2CCc3cccc(C(=O)Nc4nc5ccccc5s4)c3C2)nc1C(=O)O` (stereo partly drawn) [Compound 342a, 6-(8-(benzo[d]thiazol-2-ylcarbamoyl)-3,4-dihydroisoquinolin-2(1H)-yl)-3-(3-(((1s,4r)-4-(4-(4-(3-(2,6-dioxopiperidin-3-yl)-1-methyl-1H-indazol-7-yl)piperazin-1-yl)-4-methylpentyl)cyclohexyl)oxy)-2-methylphenyl)picolinic acid]: the “Ymin (24 h)” value is listed as “A (Ymin < 50%)” and the DC50 is < 100 nM.
For the compound `Cc1c(OCCC[C@@H]2CCN(CC(=O)Nc3ccc4c(C5CCC(=O)NC5=O)nn(C)c4c3)[C@H](C)C2)cccc1-c1ccc(N2CCc3cccc(C(=O)Nc4nc5ccccc5s4)c3C2)nc1C(=O)O` (stereo partly drawn) [Compound 343a, 6-(8-(benzo[d]thiazol-2-ylcarbamoyl)-3,4-dihydroisoquinolin-2(1H)-yl)-3-(3-(3-((2R,4R)-1-(2-((3-(2,6-dioxopiperidin-3-yl)-1-methyl-1H-indazol-6-yl)amino)-2-oxoethyl)-2-methylpiperidin-4-yl)propoxy)-2-methylphenyl)picolinic acid], the “Ymin (24 h)” value is reported as “A (Ymin < 50%)” and the DC50 is < 100 nM.
For `Cc1c(OCCC[C@H]2CCN(CC(=O)Nc3ccc4c(C5CCC(=O)NC5=O)nn(C)c4c3)[C@H](C)C2)cccc1-c1ccc(N2CCc3cccc(C(=O)Nc4nc5ccccc5s4)c3C2)nc1C(=O)O` (stereo partly drawn) [Compound 343b, 6-[8-(1,3-benzothiazol-2-ylcarbamoyl)-3,4-dihydro-1H-isoquinolin-2-yl]-3-[3-[3-[(2R,4S)-1-[2-[[3-(2,6-dioxo-3-piperidyl)-1-methyl-indazol-6-yl]amino]-2-oxo-ethyl]-2-methyl-4-piperidyl]propoxy]-2-methyl-phenyl]pyridine-2-carboxylic acid], the “Ymin (24 h)” value is on record as “A (Ymin < 50%)” and the DC50 is < 100 nM.
